{"source": "ChEMBL document CHEMBL2146447", "about": "“Synthesis and antimicrobial activity of amido linked pyrrolyl and pyrazolyl-oxazoles, thiazoles and imidazoles” (2011)", "format_in_all_cases": "functional", "key": {"Penicillium chrysogenum [1]": {"tested_on": "Penicillium chrysogenum", "test": "Antifungal activity against Penicillium chrysogenum at 50 ug after 48 hrs by agar well diffusion method", "settings": "read-out: DIZ"}, "Klebsiella pneumoniae [2]": {"tested_on": "Klebsiella pneumoniae", "test": "Antibacterial activity against Klebsiella pneumoniae at 100 ug after 24 hrs by agar well diffusion method", "settings": "read-out: DIZ"}, "Aspergillus niger [3]": {"tested_on": "Aspergillus niger", "test": "Antifungal activity against Aspergillus niger at 100 ug after 48 hrs by agar well diffusion method", "settings": "read-out: DIZ"}, "Aspergillus niger [4]": {"tested_on": "Aspergillus niger", "test": "Fungicidal activity against Aspergillus niger after 48 hrs by broth dilution method"}, "Staphylococcus aureus [5]": {"tested_on": "Staphylococcus aureus", "test": "Antibacterial activity against Staphylococcus aureus at 35 degC after 24 hrs by broth dilution method"}, "Klebsiella pneumoniae [6]": {"tested_on": "Klebsiella pneumoniae", "test": "Antibacterial activity against Klebsiella pneumoniae at 50 ug after 24 hrs by agar well diffusion method", "settings": "read-out: DIZ"}, "Penicillium chrysogenum [7]": {"tested_on": "Penicillium chrysogenum", "test": "Fungicidal activity against Penicillium chrysogenum after 48 hrs by broth dilution method"}, "Staphylococcus aureus [8]": {"tested_on": "Staphylococcus aureus", "test": "Antibacterial activity against Staphylococcus aureus assessed at 50 ug after 24 hrs by agar well diffusion method", "settings": "read-out: DIZ"}, "Pseudomonas aeruginosa [9]": {"tested_on": "Pseudomonas aeruginosa", "test": "Antibacterial activity against Pseudomonas aeruginosa at 100 ug after 24 hrs by agar well diffusion method", "settings": "read-out: DIZ"}, "Bacillus subtilis [10]": {"tested_on": "Bacillus subtilis", "test": "Antibacterial activity against Bacillus subtilis at 100 ug after 24 hrs by agar well diffusion method", "settings": "read-out: DIZ"}, "Klebsiella pneumoniae [11]": {"tested_on": "Klebsiella pneumoniae", "test": "Bactericidal activity against Klebsiella pneumoniae after 24 hrs by NCCLS M7-A3 method"}, "Bacillus subtilis [12]": {"tested_on": "Bacillus subtilis", "test": "Bactericidal activity against Bacillus subtilis after 24 hrs by broth dilution method"}, "Penicillium chrysogenum [13]": {"tested_on": "Penicillium chrysogenum", "test": "Fungicidal activity against Penicillium chrysogenum after 48 hrs by NCCLS M27-P broth dilution method"}, "Pseudomonas aeruginosa [14]": {"tested_on": "Pseudomonas aeruginosa", "test": "Antibacterial activity against Pseudomonas aeruginosa at 50 ug after 24 hrs by agar well diffusion method", "settings": "read-out: DIZ"}, "Bacillus subtilis [15]": {"tested_on": "Bacillus subtilis", "test": "Bactericidal activity against Bacillus subtilis after 24 hrs by NCCLS M7-A3 method"}, "Staphylococcus aureus [16]": {"tested_on": "Staphylococcus aureus", "test": "Antibacterial activity against Staphylococcus aureus at 35 degC after 24 hrs by NCCLS M7-A3 method"}, "Aspergillus niger [17]": {"tested_on": "Aspergillus niger", "test": "Antifungal activity against Aspergillus niger at 50 ug after 48 hrs by agar well diffusion method", "settings": "read-out: DIZ"}, "Klebsiella pneumoniae [18]": {"tested_on": "Klebsiella pneumoniae", "test": "Bactericidal activity against Klebsiella pneumoniae after 24 hrs by broth dilution method"}, "Pseudomonas aeruginosa [19]": {"tested_on": "Pseudomonas aeruginosa", "test": "Bactericidal activity against Pseudomonas aeruginosa after 24 hrs by NCCLS M7-A3 method"}, "Pseudomonas aeruginosa [20]": {"tested_on": "Pseudomonas aeruginosa", "test": "Bactericidal activity against Pseudomonas aeruginosa after 24 hrs by broth dilution method"}, "Penicillium chrysogenum [21]": {"tested_on": "Penicillium chrysogenum", "test": "Antifungal activity against Penicillium chrysogenum at 100 ug after 48 hrs by agar well diffusion method", "settings": "read-out: DIZ"}, "Aspergillus niger [22]": {"tested_on": "Aspergillus niger", "test": "Fungicidal activity against Aspergillus niger after 48 hrs by NCCLS M27-P broth dilution method"}, "Bacillus subtilis [23]": {"tested_on": "Bacillus subtilis", "test": "Antibacterial activity against Bacillus subtilis at 50 ug after 24 hrs by agar well diffusion method", "settings": "read-out: DIZ"}, "Staphylococcus aureus [24]": {"tested_on": "Staphylococcus aureus", "test": "Antibacterial activity against Staphylococcus aureus at 100 ug after 24 hrs by agar well diffusion method", "settings": "read-out: DIZ"}}}
{"compound": "O=C(/C=C/c1ccccc1)Nc1nc(-c2ccc(Cl)cc2)c[nH]1", "values": [{"measurement": "zone of inhibition at 50 µg/disc", "setting": "Penicillium chrysogenum [1]", "result": 35, "unit": "mm"}, {"measurement": "zone of inhibition at 100 µg/disc", "setting": "Klebsiella pneumoniae [2]", "result": 40, "unit": "mm"}, {"measurement": "zone of inhibition at 100 µg/disc", "setting": "Aspergillus niger [3]", "result": 34, "unit": "mm"}, {"measurement": "MIC", "setting": "Aspergillus niger [4]", "result": 12.5, "unit": "µg"}, {"measurement": "MIC", "setting": "Staphylococcus aureus [5]", "result": 12.5, "unit": "µg"}, {"measurement": "zone of inhibition at 50 µg/disc", "setting": "Klebsiella pneumoniae [6]", "result": 39, "unit": "mm"}, {"measurement": "MIC", "setting": "Penicillium chrysogenum [7]", "result": 25, "unit": "µg"}, {"measurement": "zone of inhibition at 50 µg/disc", "setting": "Staphylococcus aureus [8]", "result": 32, "unit": "mm"}, {"measurement": "zone of inhibition at 100 µg/disc", "setting": "Pseudomonas aeruginosa [9]", "result": 33, "unit": "mm"}, {"measurement": "zone of inhibition at 100 µg/disc", "setting": "Bacillus subtilis [10]", "result": 38, "unit": "mm"}, {"measurement": "MBC", "setting": "Klebsiella pneumoniae [11]", "result": 100, "unit": "µg"}, {"measurement": "MIC", "setting": "Bacillus subtilis [12]", "result": 12.5, "unit": "µg"}, {"measurement": "MFC", "setting": "Penicillium chrysogenum [13]", "result": 50, "unit": "µg"}, {"measurement": "zone of inhibition at 50 µg/disc", "setting": "Pseudomonas aeruginosa [14]", "result": 31, "unit": "mm"}, {"measurement": "MBC", "setting": "Bacillus subtilis [15]", "result": 25, "unit": "µg"}, {"measurement": "MBC", "setting": "Staphylococcus aureus [16]", "result": 50, "unit": "µg"}, {"measurement": "zone of inhibition at 50 µg/disc", "setting": "Aspergillus niger [17]", "result": 32, "unit": "mm"}, {"measurement": "MIC", "setting": "Klebsiella pneumoniae [18]", "result": 25, "unit": "µg"}, {"measurement": "MBC", "setting": "Pseudomonas aeruginosa [19]", "result": 50, "unit": "µg"}, {"measurement": "MIC", "setting": "Pseudomonas aeruginosa [20]", "result": 12.5, "unit": "µg"}, {"measurement": "zone of inhibition at 100 µg/disc", "setting": "Penicillium chrysogenum [21]", "result": 38, "unit": "mm"}, {"measurement": "MFC", "setting": "Aspergillus niger [22]", "result": 100, "unit": "µg"}, {"measurement": "zone of inhibition at 50 µg/disc", "setting": "Bacillus subtilis [23]", "result": 36, "unit": "mm"}, {"measurement": "zone of inhibition at 100 µg/disc", "setting": "Staphylococcus aureus [24]", "result": 35, "unit": "mm"}]}
{"compound": "O=C(Nc1nc(-c2ccc(Cl)cc2)c[nH]1)c1c[nH]cc1-c1ccccc1", "values": [{"measurement": "zone of inhibition at 50 µg/disc", "setting": "Penicillium chrysogenum [1]", "result": 33, "unit": "mm"}, {"measurement": "zone of inhibition at 100 µg/disc", "setting": "Klebsiella pneumoniae [2]", "result": 36, "unit": "mm"}, {"measurement": "zone of inhibition at 100 µg/disc", "setting": "Aspergillus niger [3]", "result": 34, "unit": "mm"}, {"measurement": "MIC", "setting": "Aspergillus niger [4]", "result": 25, "unit": "µg"}, {"measurement": "MIC", "setting": "Staphylococcus aureus [5]", "result": 50, "unit": "µg"}, {"measurement": "zone of inhibition at 50 µg/disc", "setting": "Klebsiella pneumoniae [6]", "result": 34, "unit": "mm"}, {"measurement": "MIC", "setting": "Penicillium chrysogenum [7]", "result": 50, "unit": "µg"}, {"measurement": "zone of inhibition at 50 µg/disc", "setting": "Staphylococcus aureus [8]", "result": 30, "unit": "mm"}, {"measurement": "zone of inhibition at 100 µg/disc", "setting": "Pseudomonas aeruginosa [9]", "result": 28, "unit": "mm"}, {"measurement": "zone of inhibition at 100 µg/disc", "setting": "Bacillus subtilis [10]", "result": 33, "unit": "mm"}, {"measurement": "MBC", "setting": "Klebsiella pneumoniae [11]", "result": ">200", "unit": "µg"}, {"measurement": "MIC", "setting": "Bacillus subtilis [12]", "result": 25, "unit": "µg"}, {"measurement": "MFC", "setting": "Penicillium chrysogenum [13]", "result": ">200", "unit": "µg"}, {"measurement": "zone of inhibition at 50 µg/disc", "setting": "Pseudomonas aeruginosa [14]", "result": 25, "unit": "mm"}, {"measurement": "MBC", "setting": "Bacillus subtilis [15]", "result": 100, "unit": "µg"}, {"measurement": "MBC", "setting": "Staphylococcus aureus [16]", "result": 200, "unit": "µg"}, {"measurement": "zone of inhibition at 50 µg/disc", "setting": "Aspergillus niger [17]", "result": 32, "unit": "mm"}, {"measurement": "MIC", "setting": "Klebsiella pneumoniae [18]", "result": 100, "unit": "µg"}, {"measurement": "MBC", "setting": "Pseudomonas aeruginosa [19]", "result": ">200", "unit": "µg"}, {"measurement": "MIC", "setting": "Pseudomonas aeruginosa [20]", "result": 50, "unit": "µg"}, {"measurement": "zone of inhibition at 100 µg/disc", "setting": "Penicillium chrysogenum [21]", "result": 36, "unit": "mm"}, {"measurement": "MFC", "setting": "Aspergillus niger [22]", "result": 100, "unit": "µg"}, {"measurement": "zone of inhibition at 50 µg/disc", "setting": "Bacillus subtilis [23]", "result": 29, "unit": "mm"}, {"measurement": "zone of inhibition at 100 µg/disc", "setting": "Staphylococcus aureus [24]", "result": 33, "unit": "mm"}]}
{"compound": "O=C(Nc1nc(-c2ccc(Cl)cc2)c[nH]1)c1n[nH]cc1-c1ccccc1", "values": [{"measurement": "zone of inhibition at 50 µg/disc", "setting": "Penicillium chrysogenum [1]", "result": 33, "unit": "mm"}, {"measurement": "zone of inhibition at 100 µg/disc", "setting": "Klebsiella pneumoniae [2]", "result": 39, "unit": "mm"}, {"measurement": "zone of inhibition at 100 µg/disc", "setting": "Aspergillus niger [3]", "result": 34, "unit": "mm"}, {"measurement": "MIC", "setting": "Aspergillus niger [4]", "result": 12.5, "unit": "µg"}, {"measurement": "MIC", "setting": "Staphylococcus aureus [5]", "result": 50, "unit": "µg"}, {"measurement": "zone of inhibition at 50 µg/disc", "setting": "Klebsiella pneumoniae [6]", "result": 37, "unit": "mm"}, {"measurement": "MIC", "setting": "Penicillium chrysogenum [7]", "result": 25, "unit": "µg"}, {"measurement": "zone of inhibition at 50 µg/disc", "setting": "Staphylococcus aureus [8]", "result": 31, "unit": "mm"}, {"measurement": "zone of inhibition at 100 µg/disc", "setting": "Pseudomonas aeruginosa [9]", "result": 32, "unit": "mm"}, {"measurement": "zone of inhibition at 100 µg/disc", "setting": "Bacillus subtilis [10]", "result": 35, "unit": "mm"}, {"measurement": "MBC", "setting": "Klebsiella pneumoniae [11]", "result": 200, "unit": "µg"}, {"measurement": "MIC", "setting": "Bacillus subtilis [12]", "result": 12.5, "unit": "µg"}, {"measurement": "MFC", "setting": "Penicillium chrysogenum [13]", "result": 100, "unit": "µg"}, {"measurement": "zone of inhibition at 50 µg/disc", "setting": "Pseudomonas aeruginosa [14]", "result": 30, "unit": "mm"}, {"measurement": "MBC", "setting": "Bacillus subtilis [15]", "result": 50, "unit": "µg"}, {"measurement": "MBC", "setting": "Staphylococcus aureus [16]", "result": 200, "unit": "µg"}, {"measurement": "zone of inhibition at 50 µg/disc", "setting": "Aspergillus niger [17]", "result": 30, "unit": "mm"}, {"measurement": "MIC", "setting": "Klebsiella pneumoniae [18]", "result": 50, "unit": "µg"}, {"measurement": "MBC", "setting": "Pseudomonas aeruginosa [19]", "result": 100, "unit": "µg"}, {"measurement": "MIC", "setting": "Pseudomonas aeruginosa [20]", "result": 25, "unit": "µg"}, {"measurement": "zone of inhibition at 100 µg/disc", "setting": "Penicillium chrysogenum [21]", "result": 37, "unit": "mm"}, {"measurement": "MFC", "setting": "Aspergillus niger [22]", "result": 50, "unit": "µg"}, {"measurement": "zone of inhibition at 50 µg/disc", "setting": "Bacillus subtilis [23]", "result": 33, "unit": "mm"}, {"measurement": "zone of inhibition at 100 µg/disc", "setting": "Staphylococcus aureus [24]", "result": 34, "unit": "mm"}]}
